# Measurements reported in patent publication US10653667B2, “Drug for preventing, treating or preventing metastasis of giant cell tumor that occurs in bone or soft parts, chondrosarcoma, or osteosarcoma, local injection for arterial embolization, and artificial bone” (NIPPON CHEMIPHAR CO., LTD, priority 2013, dated 2020).
# What was measured:
# SW1353 cells = test: Cell invasion of SW1353 cells (Matrigel Invasion Chamber); type: cell-based, human
# From the text: For the analysis of cell invasion, Matrigel™ Invasion Chamber (BD Bioscience, catalog number 354480), which uses Matrigel as the matrix, was used. […] FIGS. 76 and 77 show microphotographs of invaded cells fixed by immersion into a 4% paraformaldehyde solution, and stained with hematoxylin (magnification is 200 times). From the microphotographs of FIGS. 76 and 77, the patterns of the invaded cells can be understood.
# OUMS-27 cells = test: Proliferation of OUMS-27 cells cultured beforehand with or without GW9662; type: cell-based, human; settings: GW9662 1 μM, 60 minutes beforehand
# Description: Cells of the human chondrosarcoma cell line, OUMS-27, were cultured in the same manner as that of Example 1 until they became sub-confluent, then GW9662 (Sigma Aldrich, M6191), which is an irreversible antagonist of PPARγ, was added to the cells at a final concentration of 1 μM, and the cells were cultured for 60 minutes.
# [1] = tested on: cells of pigmented villonodular synovitis (PVNS); test: Fat cell differentiation of PVNS cells (HCS LipidTOX Green); type: cell-based, human; settings: zaltoprofen 400 μM, compared with control
# Description: (§1) It has been reported that PPARγ is a transcription factor indispensable for fat cell differentiation. Therefore, the GCTB cultured cells of the aforementioned case 1 were cultured on chamber cover slide glass, and when they reached confluent, zaltoprofen was added to the cells at various concentrations (10, 50, and 100 μM). From 24 hours thereafter, the cells were cultured in a fat cell differentiation-inducing medium (STREMPRO Adipogenesis Differentiation Kit, Invitrogen) for 7 to 14 days, and differentiation into fat cells was analyzed with HCS Lipid TOX Green Neutral Lipid Stain (Invitrogen) (FIGS. 8 and 9).
# (§2) It has been reported that PPARγ is a transcription factor indispensable for fat cell differentiation. Therefore, in the same manner as that of Example 3, zaltoprofen was added at a concentration of 400 μM to the cells of giant cell tumor of tendon sheath (GCTT) or cells of pigmented villonodular synovitis (PVNS), and differentiation into fat cells was analyzed (FIGS. 30 and 31). As a result, it was successfully confirmed that the positive images obtained with HCS LipidTOX Green increased in the zaltoprofen-added cells compared with the control.
# [2] = tested on: giant cell tumor of bone (GCTB); test: Apoptosis analysis of operational excision sample of GCTB patient administered with zaltoprofen; type: in vivo, human
# Description: An operational excision sample of a person who had been administered with 3 tablets per day of the zaltoprofen tablets, Soleton Tablet 80 (generic name: zaltoprofen, 80 mg, Nippon Chemiphar) for about 28 days for pain due to the tumor, and then subjected to the operation, and an operational excision sample of giant cell tumor of bone extracted from a patient with giant cell tumor of bone not administered with zaltoprofen (case in which tumor was excised by usual surgical operation according to standard therapy) as a control were subjected to caspase 3 staining and Tunel assay, and analyzed for the presence or absence of apoptosis. The caspase 3 protein was fluorescently detected by using Anti-ACTIVE Caspase-3-Ab (Roche) ([…]) (12-4739-81) as the primary antibody, and Donkey F2 Fragment anti-Rabbit IgG PE of eBioscience as the secondary antibody. Observation was performed with a fluorescence microscope (BZ-9000) produced by Keyence (FIG. 10).
# [3] = tested on: cells of giant cell tumor of tendon sheath (GCTT); test: Fat cell differentiation of GCTT cells (HCS LipidTOX Green); type: cell-based, human; settings: zaltoprofen 400 μM, compared with control
# Description: as §1, §2
# giant cell tumor of bone = test: Curative effect of zaltoprofen (Soleton Tablet) on patients with giant cell tumor of bone; type: in vivo, human
# Description: Soleton Tablet 80 (generic name: zaltoprofen, 80 mg, Nippon Chemiphar) was administered to a patient with giant cell tumor of bone (GCTB), patient with giant cell tumor of tendon sheath (GCTT), or patient with pigmented villonodular synovitis (PVNS) at a dose of 3 tablets per day (one tablet was administered in the morning, at noon, and in the evening), and the tumor size was evaluated by MRI every several months.
# Soleton Tablet 80 (generic name: zaltoprofen, 80 mg, Nippon Chemiphar) was administered to patients with giant cell tumor of bone at a dose of 3 tablets per day (one tablet was administered in the morning, at noon, and in the evening). Four weeks after the start of the administration, the tumor size was evaluated by imaging based on simple Roentgen contrast method, X-ray CT, and MRI (nuclear magnetic resonance imaging). Then, the tumors were excised from patients for whom surgical operation was possible, administration of zaltoprofen was continued at a dose of 240 mg per day (one 80 mg tablet was administered at the time of breakfast, lunch, and supper), and the tumor size was evaluated by imaging based on simple Roentgen contrast method, X-ray CT, and MRI (nuclear magnetic resonance imaging) every 16 weeks. Also for patients for whom surgical operation was difficult, administration of zaltoprofen was continued at a dose of 240 mg per day (one 80 mg tablet was administered at the time of breakfast, lunch, and supper), and the tumor size was evaluated by imaging based on simple Roentgen contrast method, X-ray CT, and MRI (nuclear magnetic resonance imaging) every 8 weeks.
# [4] = GCTB patient, 3 tablets per day Soleton Tablet 80 for about 28 days, vs patient not administered
# [5] = among the 13 cases of GCTB, zaltoprofen 240 mg per day
structure (smiles),measurement,setting,value
CC(C(=O)O)c1ccc2c(c1)CC(=O)c1ccccc1S2 (stereo not drawn) [zaltoprofen],cell injury seen in microphotographs of invaded cells,"SW1353 cells; 100 μM troglitazone, 50 μM celecoxib or 400 μM zaltoprofen, cells only sparsely existed and rolled into small balls",cell injury was realized
same,cell invasion remaining (suppressed to),"SW1353 cells; 400 μM zaltoprofen, 24 hours",lower than 20%
same,suppression of cell invasion of SW1353 cells,"SW1353 cells; all set concentrations, concentration-dependent, 24 hours",suppressed the cell invasion
same,cell proliferation-suppressing action after preincubation with GW9662,OUMS-27 cells,reduced by GW9662
same,positive images obtained with HCS LipidTOX Green (differentiation into fat cells),[1],increased
same,cells found in excised bone tissues at ablative operation,"[2]; GCTB patient who had taken zaltoprofen over four weeks at 240 mg per day, fat cell-like cells existed instead",cells characteristic to bone giant cells did not exist in the excised bone tissues
same,Tunel-positive cells in excision sample,[2]; [4],could be confirmed
same,caspase 3-positive cells in excision sample,[2]; [4],could be confirmed
same,positive images obtained with HCS LipidTOX Green (differentiation into fat cells),[3],increased
same,response evaluation,giant cell tumor of bone; GCTB case a,PR (“partial response (PR)” means a state that the total of sizes of tumor has decreased by 30% or more)
same,shrinkage of tumor size,"giant cell tumor of bone; GCTB case a (person, pelvis)",more than 70%
same,recurrence after excision by surgical operation,"giant cell tumor of bone; GCTB case a, up to today",no recurrence has been observed
same,diameter of the giant cell tumor of bone after taking zaltoprofen,"giant cell tumor of bone; GCTB case c, proximal part of left fibula, about nine weeks, 23.3 mm before",21.0 mm
same,diameter of the giant cell tumor of bone after taking zaltoprofen,"giant cell tumor of bone; GCTB case d, distal part of right tibia, about eight weeks, 21.7 mm before",20.5 mm
same,change of giant cell tumor of bone,giant cell tumor of bone; GCTB case g,"did not shrink, but it also did not grow"
same,KPS score after taking zaltoprofen,"giant cell tumor of bone; GCTB case g, score 80 before",100
same,growth of the giant cell tumor of bone,giant cell tumor of bone; GCTB case j (Zometa and artery embolization used in combination),about 6%
same,KPS score after taking zaltoprofen,"giant cell tumor of bone; GCTB case j, score 50 before",90
same,growth of the giant cell tumor of bone,giant cell tumor of bone; GCTB case k,about 10%
same,KPS score after taking zaltoprofen,"giant cell tumor of bone; GCTB case k, score 80 before",90
same,increase of the size of the giant cell tumor of bone,"giant cell tumor of bone; GCTB case l (printed case 1; left knee part), took only about a half of the prescribed dose",19.8%
same,response evaluation,"giant cell tumor of bone; GCTB case m (printed case in; person, proximal part of right tibia, multiple metastases to the lung)","PD (“progressive disease (PD)” means a state that the total of sizes of tumor has increased by 20% or more, and increased by 5 mm or more in terms of absolute value, or a state that new lesion has appeared)"
same,KPS score after taking zaltoprofen,"giant cell tumor of bone; GCTB case m, score 90 before",100
same,number of cases with hardening of bones on X-ray CT images,"giant cell tumor of bone; GCTB cases a, b, d, g, i, and j",6 cases
same,KPS score after taking zaltoprofen,"giant cell tumor of bone; GCTB cases a, c, and d, score 80 before",90
same,change of giant cell tumors of bone,"giant cell tumor of bone; GCTB cases a, c, d, e, and f, no treatment except zaltoprofen",shrank
same,new metastasis during the taking of zaltoprofen,giant cell tumor of bone; GCTB patients,any new metastasis of giant cell tumor of bone was not observed
same,recurrence during the taking of zaltoprofen after ablative operation,giant cell tumor of bone; GCTB patients subjected to ablative operation,no recurrence of giant cell tumor of bone could be confirmed
same,number of cases diagnosed partial response (PR),giant cell tumor of bone; [5],one
same,number of cases diagnosed progressive disease (PD),giant cell tumor of bone; [5],one
same,cases in which the KPS score worsened,giant cell tumor of bone; cases of giant cell tumor of bone who took zaltoprofen,no case in which the KPS score worsened
same,MRI finding indicated by arrows,"giant cell tumor of bone; recurrence of GCTB in the pelvic part (case a), after two months (FIG. 35) and four months (FIG. 36)",tumor necrosis region
same,tumor size by MRI,"giant cell tumor of bone; recurrence of GCTB in the pelvic part (person; case a), 3 tablets per day, after two months and four months",gradual shrinkage of the tumor
